Key:
TNF-α = assay: In vitro test of cytokine release: LPS-stimulated human whole blood / PBMCs, TNFα by ELISA; assay type: cell-based; conditions: for IC50: LPS (E.coli 026:B6) stimulation 4 hours, table does not say whole blood or PBMCs; for TNF-α, value given in %: concentration not given
Description: (§1) They may be administered in one individual dose or in a plurality of doses. The activity spectrum of the compounds as inhibitors of cytokine release was examined using the test systems below, as described by C. Donat and S. Laufer in Arch. Pharm. Pharm. […] 1, 1-40, 2000.
(§2) The reaction is stopped by placing the samples on ice, adding DPBS buffer and then centrifuging at 1000*g for 15 min. The amount of IL-1β and TNFα in the plasma supernatant is then determined by ELISA.
(§3) The cells are washed twice with DPBS buffer, resuspended in macrophage SFM medium and adjusted to a cell count of 1*10^6 cells/ml.
(§4) The reaction is stopped by placing the samples on ice, adding DPBS buffer and then centrifuging at 15 880*g for 12 min. The amount of IL-1β and TNFα in the plasma supernatant is then determined by ELISA.

IL-1β = assay: In vitro test of cytokine release: LPS-stimulated human whole blood / PBMCs, IL-1β by ELISA; assay type: cell-based; conditions: for IC50: LPS (E.coli 026:B6) stimulation 4 hours, table does not say whole blood or PBMCs
Description: as §1, §2, §3, §4

Compound | IC50 (TNF-α; Homo sapiens, Table 2) [nM] | IC50 (IL-1β; Homo sapiens, Table 2) [nM] | IC50 (TNF-α; Table 1) [nM] | IC50 (IL-1β; Table 1) [nM] | also measured
CS(=O)(=O)c1ccc(CSc2nc(-c3ccc(F)cc3)c(-c3ccncc3)n2-c2ccccc2)cc1 [Example 40, 4-(4-Fluorophenyl)-2-(4-methylsulfonyl)benzylthio-1-phenyl-5-(4-pyridyl)imidazole] |  |  | 3400 | 1300 | 
CS(=O)(=O)c1ccc(CSc2nc(-c3ccc(F)cc3)c(-c3ccncc3)n2Cc2ccccc2)cc1 [Example 41, 1-Benzyl-4-(4-fluorophenyl)-2-(4-methylsulfonyl)benzylthio-5-(4-pyridyl)-imidazole] |  |  | 1000 | 360 | 
Fc1ccc(-c2nc(SCc3ccccc3)n(CCN3CCOCC3)c2-c2ccncc2)cc1 [Example 42, 2-Benzylthio-4-(4-fluorophenyl)-1-N-morpholinoethyl-5-(4-pyridyl)-imidazole] |  |  |  |  | IC50 (TNF-α; Homo sapiens, Table 1): 11000 nM; IC50 (IL-1β; Homo sapiens, Table 1): 1300 nM
Fc1ccc(-c2nc(SCc3ccccc3)n(CCCN3CCOCC3)c2-c2ccncc2)cc1 [Example 43] |  |  | 5400 | 890 | 
C[S+]([O-])c1ccc(CSc2nc(-c3ccc(F)cc3)c(-c3ccncc3)n2CCN2CCOCC2)cc1 (centres unmarked) [Example 45, 4-(4-Fluorophenyl)-2-(4-methylsulfinyl)benzylthio-1-N-morpholinoethyl-5-(4-pyridyl)imidazole] |  |  | 12000 | 2400 | 
CC1(C)CC(n2cc(-c3ccc(F)cc3)nc2SCc2ccccc2)CC(C)(C)N1 [Example 46, 2-Benzylthio-4-(4-fluorophenyl)-1-(2,2,6,6-tetramethylpiperidin-4-yl)-imidazole] |  |  |  |  | IC50 (TNF-α; Homo sapiens, Table 1): 12000 nM; IC50 (IL-1β; Homo sapiens, Table 1): 870 nM
Cn1c(SCCN2CCOCC2)nc(-c2ccc(F)cc2)c1-c1ccncc1 [Example 47] |  |  | 28000 | 1700 | 
Cn1c(S/C=C\c2ccccc2)nc(-c2ccc(F)cc2)c1-c1ccncc1 [Example 48, 1-cis-Phenylethenylthio-4-(4-fluorophenyl)-1-methyl-5-(4-pyridyl)-imidazole] |  |  |  |  | IC50 (TNF-α; Homo sapiens, Table 1): 22000 nM; IC50 (IL-1β; Homo sapiens, Table 1): 1700 nM
CCCn1c(Sc2ccccc2)nc(-c2ccc(F)cc2)c1-c1ccncc1 [Example 52, 4-(4-Fluorophenyl)-2-phenylthio-1-n-propyl-5-(4-pyridyl)imidazole] |  |  |  |  | IC50 (TNF-α; Homo sapiens, Table 1): 14000 nM; IC50 (IL-1β; Homo sapiens, Table 1): 1000 nM
CCCn1c(Sc2ccc(Cl)cc2)nc(-c2ccc(F)cc2)c1-c1ccncc1 [Example 53, 2-(4-Chlorophenyl)thio-4-(4-fluorophenyl)-1-n-propyl-5-(4-pyridyl)-imidazole] |  |  |  |  | IC50 (TNF-α; Homo sapiens, Table 1): 29000 nM; IC50 (IL-1β; Homo sapiens, Table 1): 3300 nM
CCCn1c(Sc2ccc(SC)cc2)nc(-c2ccc(F)cc2)c1-c1ccncc1 [Example 54, 4-(4-Fluorophenyl)-2-(4-methylsulfanyl)phenylsulfanyl-1-n-propyl-5-(4-pyridyl)imidazole] |  |  | 68000 | 2500 | 
CCCn1c(Sc2ccc([S+](C)[O-])cc2)nc(-c2ccc(F)cc2)c1-c1ccncc1 (centres unmarked) [Example 55, 4-(4-Fluorophenyl)-2-[(4-methylsulfinyl)phenyl]thio-1-n-propyl-5-(4-pyridyl)imidazole] |  |  | 6200 | 720 | 
CCCn1c(Sc2ccc(S(C)(=O)=O)cc2)nc(-c2ccc(F)cc2)c1-c1ccncc1 [Example 56, 4-(4-Fluorophenyl)-2-[(4-methylsulfonyl)phenyl]thio-1-n-propyl-5-(4-pyridyl)imidazole] |  |  | 19000 | 1500 | 
Cc1nc(S)n(-c2ccc(F)cc2)c1-c1ccncc1 [Example 57, 1-(4-Fluorophenyl)-4-methyl-5-(4-pyridyl)imidazole-2-thiol] |  |  |  |  | TNF-α, value given in % (TNF-α; Table 1): 34%; IC50 (IL-1β; Homo sapiens, Table 1): 19000 nM
Cc1c(-c2ccc(F)cc2)nc(S)n1-c1cccnc1 [Example 58, 4-(4-Fluorophenyl)-5-methyl-1-(3-pyridyl)imidazole-2-thiol] |  |  |  |  | TNF-α, value given in % (TNF-α; Table 1): 32%; IC50 (IL-1β; Homo sapiens, Table 1): 28000 nM
CCCn1c(S)nc(-c2ccncc2)c1-c1ccc(F)cc1 [Example 59] |  |  | 83000 |  | IL-1β, value given in % (IL-1β; Table 1, concentration not given): 16%
COc1ccc(C(=O)Nc2cc(-c3c(-c4ccc(F)cc4)nc(SC)n3C)ccn2)cc1 [Example 67, 4-([lacuna]-Fluorophenyl)-1-methyl-5-[2-(4-methoxybenzamido)-4-pyridyl]-2-methylthioimidazole] | 640 | 440 |  |  | 

The next lines start with results.

IC50 (TNF-α; Homo sapiens, Table 2) [nM] | IC50 (IL-1β; Homo sapiens, Table 2) [nM] | Compound | IC50 (TNF-α; Table 1) [nM] | IC50 (IL-1β; Table 1) [nM] | also measured
870 | 70 | CSc1nc(-c2ccc(F)cc2)c(-c2ccnc(NC(C)=O)c2)n1C [Example 61, 4-(4-Fluorophenyl)-1-methyl-5-(2-acetamido-4-pyridyl)-2-methyl-thioimidazole] |  |  | 
490 | 120 | CCCn1c(SC)nc(-c2ccc(F)cc2)c1-c1ccnc(NC(C)=O)c1 [Example 62, 4-(4-Fluorophenyl)-1-n-propyl-5-(2-acetamido-4-pyridyl)-2-methyl-thioimidazole] |  |  | 
4500 | 460 | CSc1nc(-c2ccc(F)cc2)c(-c2ccnc(NC(C)=O)c2)n1C1CC(C)(C)NC(C)(C)C1 [Example 63, 4-(4-Fluorophenyl)-1-(2,2,6,6-tetramethylpiperidin-4-yl)-5-(2-acetamido-4-pyridyl)-2-methylthioimidazole] |  |  | 
2300 | 270 | CSc1nc(-c2ccc(F)cc2)c(-c2ccnc(N)c2)n1C [Example 66, 4-(4-Fluorophenyl)-1-methyl-5-(2-amino-4-pyridyl)-2-methyl-thioimidazole] |  |  | 
390 | 80 | CSc1nc(-c2ccc(F)cc2)c(-c2ccnc(NCc3ccccc3)c2)n1C [Example 70, 4-(4-Fluorophenyl)-1-methyl-5-(2-benzylamino-4-pyridyl)-2-methyl-thioimidazole] |  |  | 
350 | 50 | CCNc1cc(-c2c(-c3ccc(F)cc3)nc(SC)n2C)ccn1 [Example 73] |  |  | 
410 | 150 | CCCn1c(SC)nc(-c2ccc(F)cc2)c1-c1ccnc(NCC)c1 [Example 74, 4-(4-Fluorophenyl)-1-n-propyl-5-(2-ethylamino-4-pyridyl)-2-methylthioimidazole] |  |  | 
2900 | 620 | CCNc1cc(-c2c(-c3ccc(F)cc3)nc(SC)n2C2CC(C)(C)NC(C)(C)C2)ccn1 [Example 75] |  |  | 
